# Measurements from USRE47689E1, “Compounds for treating spinal muscular atrophy” (PTC Therapeutics, Inc., priority 2011, dated 2019).
# Like-named read-outs stand apart in the source and are kept apart here.
# Legend:
# Smn protein = Smn protein assay in cultured cells (SMN HTRF); format: cell-based, human; settings: 48 hours; for maximum fold (Fold) increase of Smn protein: SMA patient fibroblast cells, 7-point concentration data, fold increase relative to vehicle control (SMN HTRF); for EC1.5x (concentration giving 1.5-fold Smn protein increase): SMA Type 1 patient fibroblast cells (GM03813), 7-point concentration curve, SMN HTRF, concentration producing 1.5 times Smn protein vs DMSO vehicle control, read-out: EC1.5x for Smn protein expression
# How it was run: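 Lysates in RIPA with protease inhibitors are incubated overnight at room temperature with HTRF anti-SMN antibodies. EC1.5x is derived from fold increase in ΔF over vehicle.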
# [1] = system: SMN2 minigene (full length SMN2 minigene mRNA containing SMN2 exon 7); experiment: SMN2 minigene mRNA splicing RT-qPCR assay in cultured cells; format: cell-based, human; settings: Homo sapiens, HEK293-H, read-out: EC1.5x for production of full length SMN2 mRNA
# How it was run: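 HEK293H cells stably carrying the SMN2-A minigene treated 24 h at 37° C with compound (DMSO, 200× stock), then lysed. Multiplex RT-qPCR (SMN primers 0.4 μM final; 40 cycles) measures full-length exon 7-containing minigene mRNA, normalized to GAPDH and to vehicle; EC1.5x derived and binned by stars.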
# [2] = HEK293H cells stably transfected with SMN2-A minigene, 24 hours, 7-point concentration curve, 1.5-fold relative to vehicle-treated cells
Structure (SMILES),melting point [°C],maximum fold (Fold) increase of Smn protein (Smn protein),"EC (1.5-fold) [1, 2] [µM]",EC1.5x (concentration giving 1.5-fold Smn protein increase) (Smn protein) [nM],EC (1.5-fold) ([1]; 24 h) [µM]
"CCc1cccn2cc(-c3cc4ccc(N5CCN(C)CC5)cc4oc3=O)nc12 [Compound 358, 3-(8-ethylimidazo[1,2-a]pyridin-2-yl)-7-(4-methylpiperazin-1-yl)-2H-chromen-2-one]",137 to 141,*** (fold increase between >1.35 and ≤1.5),1 to 3,–,–
"Cc1nc(-c2cc3ccc(N4CCCN(C)CC4)cc3oc2=O)cn1-c1ccccn1 [Compound 453, 7-(4-methyl-1,4-diazepan-1-yl)-3-[2-methyl-1-(pyridin-2-yl)-1H-imidazol-4-yl]-2H-chromen-2-one]",192 to 196,* (maximum fold increase of ≤1.2),3 to 30,–,–
"COc1ccc(-c2cc3ccc(N4C[C@@H](C)N[C@@H](C)C4)cc3oc2=O)cc1C [Compound 543, 7-[(3R,5S)-3,5-dimethylpiperazin-1-yl]-3-(4-methoxy-3-methylphenyl)-2H-chromen-2-one]",111 to 113,* (maximum fold increase of ≤1.2),1 to 3,–,–
"Cc1cn2cc(-c3cc4ccc(N5C[C@@H](O)[C@H](N6CCCC6)C5)cc4oc3=O)cc2c(C)n1 [Compound 751, 3-(1,3-dimethylpyrrolo[1,2-a]pyrazin-7-yl)-7-[(3′R,4′R)-4′-hydroxy-1,3′-bipyrrolidin-1′-yl]-2H-chromen-2-one]",264 to 268,** (fold increase between >1.2 and ≤1.35),< 0.1,–,–
"O=c1oc2c(F)c(N3CCNCC3)ccc2cc1-c1ccccn1 [Compound 155, 8-fluoro-7-(piperazin-1-yl)-3-(pyridin-2-yl)-2H-chromen-2-one]",147 to 153,* (maximum fold increase of ≤1.2),–,–,3 to 30
"COc1cccc(-c2cc3c(F)cc(N4CCN[C@@H](C)C4)cc3oc2=O)n1 [Compound 469, 5-fluoro-3-(6-methoxypyridin-2-yl)-7-[(3S)-3-methylpiperazin-1-yl]-2H-chromen-2-one]",199 to 201,** (fold increase between >1.2 and ≤1.35),0.1 to 0.3,–,–
"Cc1cn2cc(-c3cc4ccc(N5CCC(NC(C)CO)CC5)cc4oc3=O)nc2c(C)n1 (stereo not drawn) [Compound 925, 3-(6,8-dimethylimidazo[1,2-a]pyrazin-2-yl)-7-{4-[(1-hydroxypropan-2-yl)amino]piperidin-1-yl}-2H-chromen-2-one]",185 to 189,*** (fold increase between >1.35 and ≤1.5),< 0.1,1000 to 3000,–
"CCc1ccn2cc(-c3cc4ccc(N5CCN(C)CC5)cc4oc3=O)nc2c1 [Compound 288, 3-(7-ethylimidazo[1,2-a]pyridin-2-yl)-7-(4-methylpiperazin-1-yl)-2H-chromen-2-one]",203 to 211,* (maximum fold increase of ≤1.2),1 to 3,–,–

# Continued, in another order:
melting point [°C],Structure (SMILES),maximum fold (Fold) increase of Smn protein (Smn protein),"EC (1.5-fold) [1, 2] [µM]",EC1.5x (concentration giving 1.5-fold Smn protein increase) (Smn protein) [nM],EC (1.5-fold) ([1]; 24 h) [µM]
162 to 164,"COc1cccc(-c2cc3ccc(N4CCN(C)CC4)cc3oc2=O)n1 [Compound 257, 3-(6-methoxypyridin-2-yl)-7-(4-methylpiperazin-1-yl)-2H-chromen-2-one]",* (maximum fold increase of ≤1.2),1 to 3,–,–
261 to 263,"Cc1cn2cc(-c3cc4ccc(N5CCN6CCC[C@H]6C5)cc4oc3=O)nc2c(C)n1 [Compound 634, 3-(6,8-dimethylimidazo[1,2-a]pyrazin-2-yl)-7-[(8aS)-hexahydropyrrolo[1,2-a]pyrazin-2(1H)-yl]-2H-chromen-2-one]",***** (fold increase >1.65),< 0.1,< 300,–
256 to 258,"C[C@@H]1CN(c2ccc3cc(-c4cn5cccnc5n4)c(=O)oc3c2)C[C@H](C)N1 [Compound 107, 7-[(3R,5S)-3,5-dimethylpiperazin-1-yl]-3-(imidazo[1,2-a]pyrimidin-2-yl)-2H-chromen-2-one]",**** (fold increase between >1.5 and ≤1.65),0.1 to 0.3,300 to 1000,–
182 to 184,"Cc1cn2cc(-c3cc4ccc(N(C)C5CCN(C)C5)cc4oc3=O)nc2c(C)n1 (stereo not drawn) [Compound 615, 3-(6,8-dimethylimidazo[1,2-a]pyrazin-2-yl)-7-[methyl(1-methylpyrrolidin-3-yl)amino]-2H-chromen-2-one]",**** (fold increase between >1.5 and ≤1.65),< 0.1,< 300,–
235 to 237,"Cc1ccc2nc(-c3cc4ccc(N5C[C@@H](C)N[C@@H](C)C5)cc4oc3=O)cn2c1 [Compound 174, 7-[(3R,5S)-3,5-dimethylpiperazin-1-yl]-3-(6-methylimidazo[1,2-a]pyridin-2-yl)-2H-chromen-2-one]",*** (fold increase between >1.35 and ≤1.5),< 0.1,–,–
245 to 250,"Cc1ccc2nc(-c3cc4cc(F)c(N5CCNCC5)cc4oc3=O)cn2c1 [Compound 158, 6-fluoro-3-(6-methylimidazo[1,2-a]pyridin-2-yl)-7-(piperazin-1-yl)-2H-chromen-2-one]",** (fold increase between >1.2 and ≤1.35),1 to 3,–,–
190 to 192,"Cc1cn2cc(-c3cc4ccc(N5CCC(C)(N)CC5)cc4oc3=O)nc2c(C)n1 [Compound 920, 7-(4-amino-4-methylpiperidin-1-yl)-3-(6,8-dimethylimidazo[1,2-a]pyrazin-2-yl)-2H-chromen-2-one]",***** (fold increase >1.65),< 0.1,< 300,–
255 to 258,"Cc1cn2cc(-c3cc4ccc(N5CCN6CCC[C@@H]6C5)cc4oc3=O)nc2c(C)n1 [Compound 632, 3-(6,8-dimethylimidazo[1,2-a]pyrazin-2-yl)-7-[(8aR)-hexahydropyrrolo[1,2-a]pyrazin-2(1H)-yl]-2H-chromen-2-one]",***** (fold increase >1.65),< 0.1,< 300,–
203 to 208,"CCc1cc(C)cn2cc(-c3cc4ccc(N5C[C@@H](C)N[C@@H](C)C5)cc4oc3=O)nc12 [Compound 341, 7-[(3R,5S)-3,5-dimethylpiperazin-1-yl]-3-(8-ethyl-6-methylimidazo[1,2-a]pyridin-2-yl)-2H-chromen-2-one]",* (maximum fold increase of ≤1.2),0.3 to 1,–,–
205 to 208,"CCN1CCN(c2ccc3cc(-c4cn5cc(C)sc5n4)c(=O)oc3c2)CC1 [Compound 151, 7-(4-ethylpiperazin-1-yl)-3-(2-methylimidazo[2,1-b][1,3]thiazol-6-yl)-2H-chromen-2-one]",* (maximum fold increase of ≤1.2),3 to 30,–,–
